Source: ChEMBL document CHEMBL1126867, “Antipicornavirus activity of tetrazole analogues related to disoxaril” (1993)
Converted amounts (≈) assume the structure as drawn. The source made the active and inactive calls. The calls are words filed in the database; no cut-off is given here.

Legend:
Human rhinovirus sp. = assay: Minimum inhibitory concentration which inhibits 80% of serotypes was determined; type: functional
Human rhinovirus 1A [1] = assay: In vitro antiviral activity against human rhinovirus-1A using plaque reduction assay; type: functional
rhinovirus B14 [2] = assay: In vitro antiviral activity against human rhinovirus-14 using plaque reduction assay; type: functional, human rhinovirus type 14; details: Rhinovirus B
Human rhinovirus 1A [3] = assay: In vitro antiviral activity against human rhinovirus-1A using plaque reduction assay; not active; type: functional, organism-based
rhinovirus B14 [4] = assay: In vitro antiviral activity against human rhinovirus-14 using plaque reduction assay; not active; type: functional, organism-based; details: human rhinovirus type 14

MIC80 (Human rhinovirus sp.) [µM] | MIC50 (Human rhinovirus 1A [1]) [µM] | MIC50 (rhinovirus B14 [2]) [µM] | MIC50 (Human rhinovirus 1A [3]) | MIC50 (rhinovirus B14 [4]) | Structure (SMILES)
1.27 (≈ 0.451 µg/mL) | 6.5 (≈ 2.31 µg/mL) | 1.6 (≈ 0.569 µg/mL) |  |  | CCCn1nnc(-c2cc(C)c(OCCCc3cc(C)no3)c(C)c2)n1
1.6 (≈ 0.614 µg/mL) | 0.76 (≈ 0.291 µg/mL) | 3 (≈ 1.15 µg/mL) |  |  | Cc1cc(CCCCCCCOc2c(C)cc(-c3nnn(C)n3)cc2C)on1
1.5 (≈ 0.554 µg/mL) | 0.46 (≈ 0.17 µg/mL) | 0.32 (≈ 0.118 µg/mL) |  |  | Cc1cc(-c2nnn(C)n2)cc(C)c1OCCCc1cc(CC(C)C)no1
 |  | 0.13 (≈ 0.0483 µg/mL) | inactive |  | CCC(O)c1cc(CCCOc2c(C)cc(-c3nnn(C)n3)cc2C)on1 (stereo unspecified)
0.41 (≈ 0.14 µg/mL) | 0.05 (≈ 0.0171 µg/mL) | 0.5 (≈ 0.171 µg/mL) |  |  | CCc1cc(CCCOc2c(C)cc(-c3nnn(C)n3)cc2C)on1
0.65 (≈ 0.24 µg/mL) | 0.73 (≈ 0.27 µg/mL) | 0.73 (≈ 0.27 µg/mL) |  |  | CCn1nnc(-c2cc(C)c(OCCCCCc3cc(C)no3)c(C)c2)n1
0.7 (≈ 0.25 µg/mL) | 0.15 (≈ 0.0536 µg/mL) | 0.1 (≈ 0.0357 µg/mL) |  |  | CCOc1cc(CCCOc2c(C)cc(-c3nnn(C)n3)cc2C)on1
1.1 (≈ 0.393 µg/mL) | 0.14 (≈ 0.05 µg/mL) | 1.4 (≈ 0.5 µg/mL) |  |  | Cc1cc(-c2nnn(C)n2)cc(C)c1OCCCc1cc(C(C)O)no1 (stereo unspecified)
0.73 (≈ 0.27 µg/mL) | 0.24 (≈ 0.0887 µg/mL) | 1.91 (≈ 0.706 µg/mL) |  |  | Cc1cc(CCCCCCOc2c(C)cc(-c3nnn(C)n3)cc2C)on1
 | 4.03 (≈ 1.8 µg/mL) | 0.06 (≈ 0.0267 µg/mL) |  |  | Cc1cc(-c2nnn(C)n2)cc(C)c1OCCCCCc1cc(COCOCCO)no1
0.73 (≈ 0.259 µg/mL) | 0.28 (≈ 0.0995 µg/mL) | 0.73 (≈ 0.259 µg/mL) |  |  | Cc1cc(-c2nnn(C)n2)cc(C)c1OCCCc1cc(C(C)C)no1
3.4 (≈ 1.17 µg/mL) | 0.2 (≈ 0.0687 µg/mL) | 3.4 (≈ 1.17 µg/mL) |  |  | Cc1cc(-c2nnn(C)n2)cc(C)c1OCCCc1cc(CO)no1
 | 6.5 (≈ 2.4 µg/mL) |  |  | inactive | CCCCn1nnc(-c2cc(C)c(OCCCc3cc(C)no3)c(C)c2)n1
 | 2.14 (≈ 0.671 µg/mL) |  |  | inactive | Cc1cc(CCOc2c(C)cc(-c3nnn(C)n3)cc2C)on1
 | 0.67 (≈ 0.26 µg/mL) |  |  | inactive | Cc1cc(-c2nnn(C)n2)cc(C)c1OCCCc1cc(CC(O)CO)no1 (stereo unspecified)
 | 4.9 (≈ 2.47 µg/mL) | 1.05 (≈ 0.529 µg/mL) |  |  | Cc1cc(-c2nnn(C)n2)cc(C)c1OCCCCCc1cc(COCCOCCOCCO)no1
0.25 (≈ 0.0991 µg/mL) | 0.38 (≈ 0.151 µg/mL) | 0.38 (≈ 0.151 µg/mL) |  |  | Cc1cc(CCCCCOc2c(Cl)cc(-c3nnn(C)n3)cc2Cl)on1
0.6 (≈ 0.223 µg/mL) | 0.39 (≈ 0.145 µg/mL) | 0.08 (≈ 0.0297 µg/mL) |  |  | CCCOc1cc(CCCOc2c(C)cc(-c3nnn(C)n3)cc2C)on1
1.59 (≈ 0.591 µg/mL) | 0.18 (≈ 0.0669 µg/mL) | 0.62 (≈ 0.23 µg/mL) |  |  | Cc1cc(-c2nnn(C)n2)cc(C)c1OCCCCCc1cc(CO)no1
